Results published in patent US5493007A, “Platelet aggregation inhibitors having high specificity for GPIIBIIIA” (Genentech, Inc., priority 1994, dated 1996).
Where “and” joins values, the source holds several entries; their conditions need not be identical. Equal values may be shown once. Where a SMILES comes first, the peptide text is derived from it. Bridges are numbered along the chain shown (N, C = ends). [ ]: non-standard residue; d: D form. Aad = N[C@@H](CCCC(=O)O)C(=O)O; Pen = CC(C)(S)[C@H](N)C(=O)O; Orn = NCCC[C@H](N)C(=O)O

How the values were obtained:
Format in all cases: in vivo
[1] = system: platelet rich plasma (PRP); experiment: Rabbit ex-vivo platelet aggregation (XPA), ADP-induced; settings: Example 1
Description: (§1) Catheters are flushed and locked after every sample.
[…] of PRP is placed in a disposable glass cuvette with a stir bar. The cuvette is placed in the temperature regulated light path of a light transmittance aggregometer (Chrono-log) and equilibrated to a 37° C. Baseline transmittance is recorded for 30 seconds, after which […] of ADP (1 mM) is added and the change in transmittance recorded. The maximum change from baseline (dT) is noted for each sample. The extent of inhibition of XPA that is produced by an inhibitor is calculated for each animal as follows: Mean dTs are calculated for the pre and post infusion values, and then, percent inhibition is calculated as (1-dt (post)/ddt (pre))×100.

[2] = system: New Zealand White rabbits; experiment: Rabbit peripheral blood flow (PBF) by observation of ear vessels
Description: as §1
For the experiments summarized in Table 1, PBF was monitored by observation of the condition of the blood vessels in the rabbits' ears, prior to and during the infusion. Normal flow is defined as ears that appear pink to red, with no visible constriction of the major blood vessels. Decreased flow applies to ears that have constricted vessels resulting in cold, pallid ears for up to 40 minutes following the start of the inhibitor infusion.

Beagle dogs = experiment: Bleeding time, dog model; settings: for bleeding time during the infusion: dose printed for 7/46: bolus 125 μg/kg plus 3 μg/kg/min, 7/1 value is a mean
Description: (§2) Beagle dogs were premedicated with atropine (3 mg subcutaneously) and anesthetized with intravenous sodium pentobarbital solution (65 mg/ml, to effect, induction and maintenance). The dogs were placed in dorsal recumbency on heating pads, intubated, and placed on oxygen-room air mixture (free breathing). A pulse oximeter was attached and heart rate and oxygen saturation monitored. An indwelling catheter was placed in one cephalic vein through which normal saline drip (for patency) and maintenance anesthetic doses were administered, and in one saphenous vein through which test or control compound was bolused or infused.
At several timepoints bleeding times were measured. The forearm of the dog was closely shaven. A Surgicutt® automatic bleeding time device was employed to make an approximate 1 cm clean incision through the skin. Blood was blotted with the edge of a Whatman's #4 filter paper every 15 seconds. Bleeding time was measured as the time from incision to the last time blood was absorbed by the filter paper.

[3] = system: platelet rich plasma (PRP); experiment: Ex vivo platelet aggregation, dog model
Description: as §2
At each proscribed time point a 5 ml whole blood sample was withdrawn via jugular venipuncture for ex vivo platelet aggregation and complete blood cell count. Manual pressure was applied to the venipuncture site following blood withdrawal to minimize hematoma formation.
Approximately one ml of blood withdrawn at each timepoint was placed on EDTA (purple-top vacutainer) and used to measure the complete blood cell count on a Cell-Dyne 1500 automated hematology analyzer. 3.6 ml of blood withdrawn at each timepoint was placed on a 3.8% sodium citrate (1 part to 9 parts blood) and centrifuged at 12,000 rpm for 4 seconds in an Eppendorf microcentrifuge. The resultant platelet rich plasma (PRP) was pipetted off for use in ex vivo aggregation procedures.
Platelet aggregation was measured in a Payton dual-channel aggregometer. The equipment was calibrated with PRP assigned as 0% light transmission and PPP as 100% light transmission. PRP was allowed to rest at room temperature for 20 minutes following separation from whole blood. […] PRP was incubated at 37° C. in the aggregometer for approximately 5 minutes with the chart recorder on to establish a baseline. […] ADP (1 mM) was added to the PRP and the aggregation response (change in light transmission) recorded. An aliquot of the PRP was used to perform a platelet count on the Cell-Dyne 1500 automated hematology analyzer. [drawing 50] Example 7, Compound 1

[4] = 300 μg/kg bolus plus an infusion of 7.2 μg/kg/min
[5] = 200 μg/kg bolus plus an infusion of 4.8 μg/kg/min

SMILES | Rabbit % P.A. Inhibition (ex vivo) [1] | peripheral blood flow, result in words [2] | further results
N=C(N)NCCC[C@@H]1NC(=O)[C@@H](Cc2ccc(O)cc2)NC(=O)C(CCCCN)SC[C@@H](C(=O)O)NC(=O)[C@H](CC(=O)O)NC(=O)CNC1=O (single isomer, unassigned) [9/10, cyclo-S-2-L-(6-aminocaproyl)-Lys--dTyr--Arg--Gly--Asp--Cys--OH] | 100% |  | 
N=C(N)NCCC[C@H](NC(=O)[C@@H]1CSCC(=O)N[C@H](Cc2ccc(O)cc2)C(=O)N[C@@H](CCCNC(=N)N)C(=O)NCC(=O)N[C@@H](CC(=O)O)C(=O)N1)C(N)=O [7/1, cyclo-S-acetyl-dTyr--Arg--Gly--Asp--Cys--Arg--NH2] ({CH2CO}-[dY]RGDCR-NH2; thioether N-5) | 100% | no substantial increase in cutaneous bleeding time (1.17 times; dosed to 100% inhibition of platelet aggregation) or decrease in peripheral blood flow | bleeding time, preinfusion value (Beagle dogs; before infusion (baseline)): 3 min; bleeding time during the infusion (Beagle dogs): 6.25 min
N=C(N)NCCC[C@@H]1NC(=O)[C@@H](Cc2ccc(O)cc2)NC(=O)CSC[C@@H](C(=O)N[C@@H](CCCCN)C(N)=O)NC(=O)[C@H](CC(=O)O)NC(=O)CNC1=O [7/3, cyclo-S-acetyl-dTyr--Arg--Gly--Asp--Cys--Lys--NH2] ({CH2CO}-[dY]RGDCK-NH2; thioether N-5) | 97% |  | bleeding time, result in words (Beagle dogs; [4]): without prolongation of the bleeding time; inhibition of ex vivo aggregation [3, 4]: > 95%
N=C(N)NCCC[C@@H]1NC(=O)[C@@H](Cc2ccc(O)cc2)NC(=O)CSC[C@@H](C(=O)N[C@@H](CCCN)C(N)=O)NC(=O)[C@H](CC(=O)O)NC(=O)CNC1=O [7/5, cyclo-S-acetyl-dTyr--Arg--Gly--Asp--Cys--Orn--NH2] ({CH2CO}-[dY]RGDC[Orn]-NH2; thioether N-5) | 100% |  | bleeding time, result in words (Beagle dogs; [5]): minimal prolongation of bleeding; inhibition of aggregation [3, 5]: > 90%
N=C(N)NCCC[C@H](NC(=O)[C@H](Cc1ccc(O)cc1)NC(=O)[C@@H]1CSCC(=O)N[C@H](Cc2ccc(O)cc2)C(=O)N[C@@H](CCCNC(=N)N)C(=O)NCC(=O)N[C@@H](CC(=O)O)C(=O)N1)C(N)=O [7/7, cyclo-S-acetyl-dTyr--Arg--Gly--Asp--Cys--Tyr--Arg--NH2] ({CH2CO}-[dY]RGDCYR-NH2; thioether N-5) | 98% |  | 
CC1(C)SCC(=O)N[C@H](Cc2ccc(O)cc2)C(=O)N[C@@H](CCCCN)C(=O)NCC(=O)N[C@@H](CC(=O)O)C(=O)N[C@@H]1C(=O)N[C@@H](CCCNC(=N)N)C(N)=O [7/16, cyclo-S-acetyl-dTyr--Lys--Gly--Asp--Pen--Arg--NH2] ({CH2CO}-[dY]KGD[Pen]R-NH2; thioether N-5) |  | without substantial increased cutaneous bleeding time or decreased peripheral blood flow | 
CC1(C)SCC(=O)N[C@H](Cc2ccc(O)cc2)C(=O)N[C@@H](CCCCN)C(=O)NCC(=O)N[C@@H](CC(=O)O)C(=O)N[C@@H]1C(=O)N[C@@H](CCCCN)C(N)=O [7/17, cyclo-S-acetyl-dTyr--Lys--Gly--Asp--Pen--Lys--NH2] ({CH2CO}-[dY]KGD[Pen]K-NH2; thioether N-5) | 100% | without substantial increased cutaneous bleeding time or decreased peripheral blood flow | 
N=C(N)NCCC[C@@H]1NC(=O)[C@@H](Cc2ccc(O)cc2)NC(=O)CSC[C@@H](C(=O)N[C@@H](CCC(N)=O)C(N)=O)NC(=O)[C@H](CC(=O)O)NC(=O)CNC1=O [7/27, cyclo-S-acetyl-dTyr--Arg--Gly--Asp--Cys--Gln--NH2] ({CH2CO}-[dY]RGDCQ-NH2; thioether N-5) | 72% and 99% |  | 
N=C(N)NCCC[C@@H]1NC(=O)[C@@H](Cc2ccc(O)cc2)NC(=O)CSC[C@@H](C(=O)O)NC(=O)[C@H](CC(=O)O)NC(=O)CNC1=O [7/46, cyclo-S-acetyl-dTyr--Arg--Gly--Asp--Cys--OH] ({CH2CO}-[dY]RGDC-OH; thioether N-5) | 99% and 55% |  | bleeding time during the infusion (Beagle dogs): > 30 min; inhibition of ex vivo aggregation ([3]; bolus of 125 μg/kg plus an infusion of 3 μg/kg/min, throughout the infusion period): 100%
N=C(N)NCCC[C@@H]1NC(=O)[C@@H](Cc2ccc(O)cc2)NC(=O)CCC[C@@H](C(=O)N[C@@H](CCCCN)C(N)=O)NC(=O)[C@H](CC(=O)O)NC(=O)CNC1=O [10/20, cyclo(1-5)dTyr--Arg--Gly--Asp--L-α-aminoadipic acid-Lys--NH2] ([dY]RGD[Aad]K-NH2; lactam N-5) | 100% |  | 
